According to patent US6800639B2, “Pharmaceutical combination for the treatment of cancer” (Shire BioChem Inc., priority 2001, dated 2004):

Assays:
[1] = system: patients with refractory/relapsed leukemia; experiment: β-L OddC alone in patients with refractory/relapsed leukemia; type: in vivo, human; details: single agent; 16 evaluable AML patients
Method: A study was conducted to investigate the activity of β-L OddC as a single agent in patients with refractory/relapsed leukemia. The study involved the treatment of patients with refractory or relapsed acute myeloid (AML) or lymphocytic (ALL) leukemia, myelodysplastic syndromes (MDS), or chronic myelogenous leukemia in blastic Phase (CML-BP). A total of 42 patients were treated in the study. As a result, a total of 39 patients were assessable for responses.

CCRF-CEM cells = experiment: MTT assay with CalcuSyn median-effect analysis, Troxacitabine/araC on CCRF-CEM cells; type: cell-based
Excerpt: The absorbance at 490 nm is directly proportional to the number of living cells in culture at a certain time point. […] Enz. Regulation 22, 1984, pp.27-55. […] Combinations of drugs were then generated around the IC50's of each drug to allow a constant ratio in order to determine if the combination was additive, synergistic or antagonistic. […] A CI below 1 is an indication of synergy, while a CI equal to 1 represents additivity, and a CI above 1 indicates antagonism.

[2] = system: MiaPaCa Human Pancreatic Tumor Xenograft; experiment: Troxacitabine ± Gemcitabine vs. MiaPaCa human pancreatic tumor xenograft; details: for # of Toxic Deaths / Mice with Complete Shrinkage / Mice with Partial Shrinkage: n 10
Method: (§1) Female nude mice weighing approximately 20 g were implanted s.c. by trocar with fragments of human tumor harvested from s.c. growing tumors in nude mice hosts. When the tumors were approximately 58mg in size (12 days following inoculation), the animals were pair-matched into treatment and control groups. Each group contained 10 mice, each of which was ear-tagged and followed individually throughout the experiment. Initial doses were given on Day 1 following pair matching. […] Gemcitabine (Eli Lilly, Lot# 4MT16M) was administered intraperitoneally at 40 mg/kg and 80 mg/kg on a q3d×4 schedule.
(§2) Mice were weighed twice weekly, and tumor measurements were taken by calipers twice weekly, starting on Day 1. These tumor measurements were converted to mg tumor weight by a well-known formula, (W^2×L)/2. The experiment was terminated when the control group tumor size reached an average of 1 gram. Upon termination, the mice were weighed, sacrificed and their tumors were excised. The tumors were weighed, and the mean tumor weight per group was calculated.
(§3) Some drugs may cause tumor shrinkage in these tumor enograft models. With these agents, the final weight of a given tumor is subtracted from its own weight at the start of treatment on Day 1. This difference, divided by the initial tumor weight, is converted to percent shrinkage. The mean percent tumor shrinkage can be calculated from data from the mice in a group that experienced tumor regressions. If the tumor completely disappears in a mouse, it is considered a complete regression or complete tumor shrinkage.

[3] = system: Panc-01 Human Pancreatic Tumor Xenograft; experiment: Troxacitabine ± Gemcitabine vs. Panc-01 human pancreatic tumor xenograft; details: for Deaths / Mice with Complete Shrinkage / Mice with Partial Shrinkage: n = 10
Method: as §1, §2, §3

[4] = Determination of maximum tolerated dose (MTD) in non-tumored mice; type: in vivo; details: i.v. qd×5 schedule

In the case of `Nc1ccn([C@@H]2CO[C@H](CO)O2)c(=O)n1` [Troxacitabine, (−)-β-L-Dioxolane-Cytidine], the complete remissions [1] is reported as 2, the partial remissions [1] is reported as 1 and the “remission rate (complete + partial)” value [1] is reported as 18%. The “% Toxicity” value (CCRF-CEM cells; Troxacitabine 20 nM, 72 h continuous exposure) was 0%, the “% Toxicity” value (CCRF-CEM cells; Troxacitabine 31 nM, 2 h exposure, MTT at 72 hr) was 3 ± 3% and the “% Toxicity” value (CCRF-CEM cells; Troxacitabine 62 nM, 2 h exposure, MTT at 72 hr) was 12 ± 7%. The “% Toxicity” value (CCRF-CEM cells; Troxacitabine 100 nM, 72 h continuous exposure) was 28 ± 5%, the “% Toxicity” value (CCRF-CEM cells; Troxacitabine 125 nM, 2 h exposure, MTT at 72 hr) was 11 ± 2% and the “% Toxicity” value (CCRF-CEM cells; Troxacitabine 250 nM, 2 h exposure, MTT at 72 hr) was 24 ± 3%. For the same compound, the “% Toxicity” value (CCRF-CEM cells; Troxacitabine 500 nM, 2 h exposure, MTT at 72 hr) was 34 ± 6%, the “% Toxicity” value (CCRF-CEM cells; Troxacitabine 500 nM, 72 h continuous exposure) was 65 ± 2% and the “% Toxicity” value (CCRF-CEM cells; Troxacitabine 2500 nM, 72 h continuous exposure) was 90 ± 2%. For the same compound, the “% Toxicity” value (CCRF-CEM cells; Troxacitabine 12500 nM, 72 h continuous exposure) was 98 ± 1%, the “% Tumor Growth Inhibition” value ([2]; 10 mg/kg i.v., qd × 5) was 23.9% and the “Final Tumor Wt. (Mean ± SEM)” value ([2]; 10 mg/kg i.v., qd × 5) was 872.7 ± 171.1 mg. The “# of Toxic Deaths” value ([2]; 10 mg/kg i.v., qd × 5) was 3, the “Mice with Complete Shrinkage” value ([2]; 10 mg/kg i.v., qd × 5) was 0 and the “Mice with Partial Shrinkage” value ([2]; 10 mg/kg i.v., qd × 5) was 0. For the same compound, the “% Tumor Growth Inhibition” value ([2]; 25 mg/kg i.v., qd × 5) was 29.7%, the “Final Tumor Wt. (Mean ± SEM)” value ([2]; 25 mg/kg i.v., qd × 5) was 813.4 ± 57.9 mg and the “# of Toxic Deaths” value ([2]; 25 mg/kg i.v., qd × 5) was 0. For the same compound, the “Mice with Complete Shrinkage” value ([2]; 25 mg/kg i.v., qd × 5) was 0, the “Mice with Partial Shrinkage” value ([2]; 25 mg/kg i.v., qd × 5) was 0 and the “Final Tumor Wt. (Mean ± SEM)” value ([3]; 10 mg/kg i.v., qd × 5) was 11.1 ± 2.1 mg. The “Mean % Tumor Shrinkage” value ([3]; 10 mg/kg i.v., qd × 5) was 77.5%, the Deaths ([3]; 10 mg/kg i.v., qd × 5) was 0 and the “Mice with Complete Shrinkage” value ([3]; 10 mg/kg i.v., qd × 5) was 1. For the same compound, the “Mice with Partial Shrinkage” value ([3]; 10 mg/kg i.v., qd × 5) was 9, the “Final Tumor Wt. (Mean ± SEM)” value ([3]; 25 mg/kg i.v., qd × 5) was 12.5 ± 1.9 mg and the “Mean % Tumor Shrinkage” value ([3]; 25 mg/kg i.v., qd × 5) was 72.6%. The Deaths ([3]; 25 mg/kg i.v., qd × 5) was 0, the “Mice with Complete Shrinkage” value ([3]; 25 mg/kg i.v., qd × 5) was 1 and the “Mice with Partial Shrinkage” value ([3]; 25 mg/kg i.v., qd × 5) was 9. For the same compound, the maximum tolerated dose [4] was “greater than 25 mg/kg”.
In the case of `Nc1ccn([C@@H]2O[C@H](CO)[C@@H](O)C2(F)F)c(=O)n1` [Gemcitabine, reference compound], the “% Tumor Growth Inhibition” value ([2]; 40 mg/kg i.p., q3d × 4) is reported as 37.3%, the “Final Tumor Wt. (Mean ± SEM)” value ([2]; 40 mg/kg i.p., q3d × 4) is reported as 733.0 ± 98.7 mg and the “# of Toxic Deaths” value ([2]; 40 mg/kg i.p., q3d × 4) is reported as 0. For the same compound, the “Mice with Complete Shrinkage” value ([2]; 40 mg/kg i.p., q3d × 4) was 0, the “Mice with Partial Shrinkage” value ([2]; 40 mg/kg i.p., q3d × 4) was 0 and the “% Tumor Growth Inhibition” value ([2]; 80 mg/kg i.p., q3d × 4) was 53.6%. The “Final Tumor Wt. (Mean ± SEM)” value ([2]; 80 mg/kg i.p., q3d × 4) was 553.8 ± 124.3 mg, the “# of Toxic Deaths” value ([2]; 80 mg/kg i.p., q3d × 4) was 1 and the “Mice with Complete Shrinkage” value ([2]; 80 mg/kg i.p., q3d × 4) was 0. For the same compound, the “Mice with Partial Shrinkage” value ([2]; 80 mg/kg i.p., q3d × 4) was 0, the “% Tumor Growth Inhibition” value ([3]; 40 mg/kg i.p., q3d × 4) was 49.8% and the “Final Tumor Wt. (Mean ± SEM)” value ([3]; 40 mg/kg i.p., q3d × 4) was 457.8 ± 113.9 mg. For the same compound, the Deaths ([3]; 40 mg/kg i.p., q3d × 4) was 0, the “Mice with Complete Shrinkage” value ([3]; 40 mg/kg i.p., q3d × 4) was 0 and the “Mice with Partial Shrinkage” value ([3]; 40 mg/kg i.p., q3d × 4) was 0. The “% Tumor Growth Inhibition” value ([3]; 80 mg/kg i.p., q3d × 4) was 74.3%, the “Final Tumor Wt. (Mean ± SEM)” value ([3]; 80 mg/kg i.p., q3d × 4) was 262.2 ± 67.7 mg and the Deaths ([3]; 80 mg/kg i.p., q3d × 4) was 0. The “Mice with Complete Shrinkage” value ([3]; 80 mg/kg i.p., q3d × 4) was 0 and the “Mice with Partial Shrinkage” value ([3]; 80 mg/kg i.p., q3d × 4) was 0.
